Data as given in ChEMBL document CHEMBL3994622, “Design and synthesis of new RAF kinase-inhibiting antiproliferative quinoline derivatives. Part 2: Diarylurea derivatives” (Eur J Med Chem, 2017).

What was measured:
Assay type in all cases: functional
EKVX = experiment: Growth inhibition of human EKVX cells assessed as cell growth at 3 uM incubated for 48 hrs by sulforhodamine B assay relative to control; details: read-out: Activity
T47D [1] = experiment: Growth inhibition of human T47D cells assessed as cell growth at 10 uM incubated for 48 hrs by sulforhodamine B assay relative to control; details: read-out: Activity
MOLT-4 [2] = experiment: Growth inhibition of human MOLT4 cells assessed as cell growth at 50 uM incubated for 48 hrs by sulforhodamine B assay relative to control; details: MOLT-4, 48 h, read-out: Activity
SK-MEL-2 [3] = experiment: Growth inhibition of human SK-MEL-2 cells assessed as cell growth at 0.005 uM incubated for 48 hrs by sulforhodamine B assay relative to control; details: SK-MEL-2, 48 h, read-out: Activity
SR [4] = experiment: Growth inhibition of human SR cells assessed as cell growth at 0.005 uM incubated for 48 hrs by sulforhodamine B assay relative to control; details: read-out: Activity
SK-MEL-28 = experiment: Growth inhibition of human SK-MEL-28 cells assessed as cell growth at 5 uM incubated for 48 hrs by sulforhodamine B assay relative to control; details: SK-MEL-28, 48 h, read-out: Activity
HT-29 = experiment: Growth inhibition of human HT-29 cells assessed as cell growth at 0.05 uM incubated for 48 hrs by sulforhodamine B assay relative to control; details: HT-29, 48 h, read-out: Activity
HL-60(TB) [5] = experiment: Growth inhibition of human HL-60(TB) cells assessed as cell growth at 0.05 uM incubated for 48 hrs by sulforhodamine B assay relative to control; details: HL-60, 48 h, read-out: Activity
SR [6] = experiment: Growth inhibition of human SR cells assessed as cell growth at 5 uM incubated for 48 hrs by sulforhodamine B assay relative to control; details: read-out: Activity
OVCAR-8 = experiment: Growth inhibition of human OVCAR8 cells assessed as cell growth at 0.005 uM incubated for 48 hrs by sulforhodamine B assay relative to control; details: OVCAR-8, 48 h, read-out: Activity
COLO 205 = experiment: Growth inhibition of human COLO205 cells assessed as cell growth at 0.5 uM incubated for 48 hrs by sulforhodamine B assay relative to control; details: COLO 205, 48 h, read-out: Activity
TK-10 = experiment: Growth inhibition of human TK10 cells assessed as cell growth at 0.05 uM incubated for 48 hrs by sulforhodamine B assay relative to control; details: TK-10, 48 h, read-out: Activity
MDA-MB-435 = experiment: Growth inhibition of human MDA-MB-435 cells assessed as cell growth at 0.005 uM incubated for 48 hrs by sulforhodamine B assay relative to control; details: MDA-MB-435, 48 h, read-out: Activity
OVCAR-3 = experiment: Growth inhibition of human OVCAR3 cells assessed as cell growth at 5 uM incubated for 48 hrs by sulforhodamine B assay relative to control; details: OVCAR-3, 48 h, read-out: Activity
T47D [7] = experiment: Growth inhibition of human T47D cells assessed as cell growth at 5 uM incubated for 48 hrs by sulforhodamine B assay relative to control; details: read-out: Activity
NCI-H322M = experiment: Growth inhibition of human NCI-H322M cells assessed as cell growth at 5 uM incubated for 48 hrs by sulforhodamine B assay relative to control; details: read-out: Activity
NCI-H226 = experiment: Growth inhibition of human NCI-H226 cells assessed as cell growth at 0.005 uM incubated for 48 hrs by sulforhodamine B assay relative to control; details: NCI-H226, 48 h, read-out: Activity
MCF7 = experiment: Growth inhibition of human MCF7 cells assessed as cell growth at 0.005 uM incubated for 48 hrs by sulforhodamine B assay relative to control; details: MCF7, 48 h, read-out: Activity
HOP-62 = experiment: Growth inhibition of human HOP62 cells assessed as cell growth at 0.005 uM incubated for 48 hrs by sulforhodamine B assay relative to control; details: HOP-62, 48 h, read-out: Activity
HL-60(TB) [8] = experiment: Growth inhibition of human HL-60(TB) cells assessed as cell growth at 50 uM incubated for 48 hrs by sulforhodamine B assay relative to control; details: HL-60, 48 h, read-out: Activity
NCI-H460 = experiment: Growth inhibition of human NCI-H460 cells assessed as cell growth at 50 uM incubated for 48 hrs by sulforhodamine B assay relative to control; details: NCI-H460, 48 h, read-out: Activity
MOLT-4 [9] = experiment: Growth inhibition of human MOLT4 cells assessed as cell growth at 0.05 uM incubated for 48 hrs by sulforhodamine B assay relative to control; details: MOLT-4, 48 h, read-out: Activity
786-0 = experiment: Growth inhibition of human 786-0 cells assessed as cell growth at 0.05 uM incubated for 48 hrs by sulforhodamine B assay relative to control; details: 786-0, 48 h, read-out: Activity
SK-OV-3 = experiment: Growth inhibition of human SKOV3 cells assessed as cell growth at 0.005 uM incubated for 48 hrs by sulforhodamine B assay relative to control; details: SK-OV-3, 48 h, read-out: Activity
NCI-H23 [10] = experiment: Growth inhibition of human NCI-H23 cells assessed as cell growth at 0.5 uM incubated for 48 hrs by sulforhodamine B assay relative to control; details: NCI-H23, 48 h, read-out: Activity
OVCAR-5 = experiment: Growth inhibition of human OVCAR5 cells assessed as cell growth at 50 uM incubated for 48 hrs by sulforhodamine B assay relative to control; details: OVCAR-5, 48 h, read-out: Activity
LOX IMVI = experiment: Growth inhibition of human LOXIMVI cells assessed as cell growth at 0.005 uM incubated for 48 hrs by sulforhodamine B assay relative to control; details: read-out: Activity
SK-MEL-5 = experiment: Growth inhibition of human SK-MEL-5 cells assessed as cell growth at 0.05 uM incubated for 48 hrs by sulforhodamine B assay relative to control; details: SK-MEL-5, 48 h, read-out: Activity
KM12 = experiment: Growth inhibition of human KM12 cells assessed as cell growth at 0.005 uM incubated for 48 hrs by sulforhodamine B assay relative to control; details: KM12, 48 h, read-out: Activity
HOP-92 = experiment: Growth inhibition of human HOP92 cells assessed as cell growth at 50 uM incubated for 48 hrs by sulforhodamine B assay relative to control; details: HOP-92, 48 h, read-out: Activity
ACHN = experiment: Growth inhibition of human ACHN cells assessed as cell growth at 0.5 uM incubated for 48 hrs by sulforhodamine B assay relative to control; details: read-out: Activity
NCI-H23 [11] = experiment: Growth inhibition of human NCI-H23 cells assessed as cell growth at 0.005 uM incubated for 48 hrs by sulforhodamine B assay relative to control; details: NCI-H23, 48 h, read-out: Activity
PC-3 = experiment: Growth inhibition of human PC3 cells assessed as cell growth at 0.005 uM incubated for 48 hrs by sulforhodamine B assay relative to control; details: PC-3, 48 h, read-out: Activity
SK-MEL-2 [12] = experiment: Growth inhibition of human SK-MEL-2 cells assessed as cell growth at 5 uM incubated for 48 hrs by sulforhodamine B assay relative to control; details: SK-MEL-2, 48 h, read-out: Activity

COc1cc2cc(Oc3ccc(NC(=O)Nc4ccc(Cl)c(C(F)(F)F)c4)cc3)c(C)nc2cc1OC
growth at 3 µM (EKVX): 5%

COc1cc2cc(Oc3ccc(NC(=O)Nc4cc(C(F)(F)F)cc(C(F)(F)F)c4)cc3)c(C)nc2cc1OC
growth at 10 µM (T47D [1]): -21%

COc1cc2cc(Oc3ccc(NC(=O)Nc4cccc(C(F)(F)F)c4)cc3)c(C)nc2cc1OC
growth at 50 µM (MOLT-4 [2]): -22%
growth at 0.005 µM (SK-MEL-2 [3]): 102%
growth at 0.005 µM (SR [4]): 93%
growth at 5 µM (SK-MEL-28): 21%
growth at 0.05 µM (HT-29): 100%
growth at 0.05 µM (HL-60(TB) [5]): 101%
growth at 5 µM (SR [6]): -19%
growth at 0.005 µM (OVCAR-8): 101%
growth at 0.5 µM (COLO 205): 102%
growth at 0.05 µM (TK-10): 95%
growth at 0.005 µM (MDA-MB-435): 95%
growth at 5 µM (OVCAR-3): 15%
growth at 5 µM (T47D [7]): 7%
growth at 5 µM (NCI-H322M): 31%
growth at 0.005 µM (NCI-H226): 96%
growth at 0.005 µM (MCF7): 90%
growth at 0.005 µM (HOP-62): 95%
growth at 50 µM (HL-60(TB) [8]): -43%
growth at 50 µM (NCI-H460): -60%
growth at 0.05 µM (MOLT-4 [9]): 98%
growth at 0.05 µM (786-0): 82%
growth at 0.005 µM (SK-OV-3): 98%
growth at 0.5 µM (NCI-H23 [10]): 97%
growth at 50 µM (OVCAR-5): -44%
growth at 0.005 µM (LOX IMVI): 98%
growth at 0.05 µM (SK-MEL-5): 92%
growth at 0.005 µM (KM12): 90%
growth at 50 µM (HOP-92): -74%
growth at 0.5 µM (ACHN): 95%
growth at 0.005 µM (NCI-H23 [11]): 96%
growth at 0.005 µM (PC-3): 94%
growth at 5 µM (SK-MEL-2 [12]): -34%
